Numbers after ± are expanded uncertainties.
Test: xn = mol fraction of the nth substance listed
Conditions: Liquid, Vibrating tube method

## CCCCCCCC [octane] + CCCCCC
333.01 K, 7000 kPa, x2 = 0.9308
  mass density: 636.74 ± 0.33 kg/m3
333.01 K, 8000 kPa, x2 = 0.9308
  mass density: 638.01 ± 0.34 kg/m3
333.01 K, 9000 kPa, x2 = 0.9308
  mass density: 639.26 ± 0.35 kg/m3
333.01 K, 10000 kPa, x2 = 0.9308
  mass density: 640.48 ± 0.36 kg/m3
333.01 K, 11000 kPa, x2 = 0.9308
  mass density: 641.7 ± 0.37 kg/m3
333.01 K, 12000 kPa, x2 = 0.9308
  mass density: 642.89 ± 0.38 kg/m3
333.01 K, 13000 kPa, x2 = 0.9308
  mass density: 644.06 ± 0.39 kg/m3
333.01 K, 14000 kPa, x2 = 0.9308
  mass density: 645.22 ± 0.4 kg/m3
333.01 K, 15000 kPa, x2 = 0.9308
  mass density: 646.35 ± 0.41 kg/m3
333.01 K, 16000 kPa, x2 = 0.9308
  mass density: 647.46 ± 0.42 kg/m3
333.01 K, 17000 kPa, x2 = 0.9308
  mass density: 648.54 ± 0.43 kg/m3
333.01 K, 18000 kPa, x2 = 0.9308
  mass density: 649.61 ± 0.44 kg/m3
333.01 K, 19000 kPa, x2 = 0.9308
  mass density: 650.63 ± 0.45 kg/m3
333.01 K, 20000 kPa, x2 = 0.9308
  mass density: 651.64 ± 0.46 kg/m3
333.01 K, 21000 kPa, x2 = 0.9308
  mass density: 652.62 ± 0.47 kg/m3
333.01 K, 22000 kPa, x2 = 0.9308
  mass density: 653.55 ± 0.48 kg/m3
333.01 K, 23000 kPa, x2 = 0.9308
  mass density: 654.5 ± 0.49 kg/m3
333.01 K, 24000 kPa, x2 = 0.9308
  mass density: 655.39 ± 0.51 kg/m3
333.01 K, 25000 kPa, x2 = 0.9308
  mass density: 656.28 ± 0.52 kg/m3
333.02 K, 1000 kPa, x2 = 0.1654
  mass density: 665.79 ± 0.26 kg/m3
333.02 K, 1000 kPa, x2 = 0.7995
  mass density: 637.16 ± 0.28 kg/m3
333.02 K, 2000 kPa, x2 = 0.1654
  mass density: 666.85 ± 0.27 kg/m3
333.02 K, 2000 kPa, x2 = 0.7995
  mass density: 638.39 ± 0.28 kg/m3
333.02 K, 3000 kPa, x2 = 0.1654
  mass density: 667.91 ± 0.28 kg/m3
333.02 K, 3000 kPa, x2 = 0.7995
  mass density: 639.63 ± 0.29 kg/m3
333.02 K, 4000 kPa, x2 = 0.1654
  mass density: 668.97 ± 0.29 kg/m3
333.02 K, 4000 kPa, x2 = 0.7995
  mass density: 640.91 ± 0.3 kg/m3
333.02 K, 5000 kPa, x2 = 0.1654
  mass density: 670.04 ± 0.29 kg/m3
333.02 K, 5000 kPa, x2 = 0.7995
  mass density: 642.14 ± 0.31 kg/m3
333.02 K, 6000 kPa, x2 = 0.1654
  mass density: 671.11 ± 0.3 kg/m3
333.02 K, 6000 kPa, x2 = 0.7995
  mass density: 643.37 ± 0.32 kg/m3
333.02 K, 7000 kPa, x2 = 0.1654
  mass density: 672.17 ± 0.31 kg/m3
333.02 K, 7000 kPa, x2 = 0.7995
  mass density: 644.6 ± 0.33 kg/m3
333.02 K, 8000 kPa, x2 = 0.1654
  mass density: 673.21 ± 0.32 kg/m3
333.02 K, 8000 kPa, x2 = 0.7995
  mass density: 645.81 ± 0.34 kg/m3
333.02 K, 9000 kPa, x2 = 0.1654
  mass density: 674.28 ± 0.33 kg/m3
333.02 K, 9000 kPa, x2 = 0.7995
  mass density: 647.01 ± 0.35 kg/m3
333.02 K, 10000 kPa, x2 = 0.1654
  mass density: 675.32 ± 0.34 kg/m3
333.02 K, 10000 kPa, x2 = 0.7995
  mass density: 648.19 ± 0.36 kg/m3
333.02 K, 11000 kPa, x2 = 0.1654
  mass density: 676.36 ± 0.34 kg/m3
333.02 K, 11000 kPa, x2 = 0.7995
  mass density: 649.36 ± 0.37 kg/m3
333.02 K, 12000 kPa, x2 = 0.1654
  mass density: 677.38 ± 0.35 kg/m3
333.02 K, 12000 kPa, x2 = 0.7995
  mass density: 650.5 ± 0.38 kg/m3
333.02 K, 13000 kPa, x2 = 0.1654
  mass density: 678.38 ± 0.36 kg/m3
333.02 K, 13000 kPa, x2 = 0.7995
  mass density: 651.63 ± 0.39 kg/m3
333.02 K, 14000 kPa, x2 = 0.1654
  mass density: 679.38 ± 0.37 kg/m3
333.02 K, 14000 kPa, x2 = 0.7995
  mass density: 652.74 ± 0.4 kg/m3
333.02 K, 15000 kPa, x2 = 0.1654
  mass density: 680.34 ± 0.38 kg/m3
333.02 K, 15000 kPa, x2 = 0.7995
  mass density: 653.84 ± 0.4 kg/m3
333.02 K, 16000 kPa, x2 = 0.1654
  mass density: 681.29 ± 0.39 kg/m3
333.02 K, 16000 kPa, x2 = 0.7995
  mass density: 654.91 ± 0.41 kg/m3
333.02 K, 17000 kPa, x2 = 0.1654
  mass density: 682.26 ± 0.4 kg/m3
333.02 K, 17000 kPa, x2 = 0.7995
  mass density: 655.95 ± 0.42 kg/m3
333.02 K, 18000 kPa, x2 = 0.1654
  mass density: 683.15 ± 0.41 kg/m3
333.02 K, 18000 kPa, x2 = 0.7995
  mass density: 656.97 ± 0.43 kg/m3
333.02 K, 19000 kPa, x2 = 0.1654
  mass density: 684.04 ± 0.41 kg/m3
333.02 K, 19000 kPa, x2 = 0.7995
  mass density: 657.98 ± 0.44 kg/m3
333.02 K, 20000 kPa, x2 = 0.1654
  mass density: 684.93 ± 0.42 kg/m3
333.02 K, 20000 kPa, x2 = 0.7995
  mass density: 658.95 ± 0.45 kg/m3
333.02 K, 21000 kPa, x2 = 0.1654
  mass density: 685.79 ± 0.43 kg/m3
333.02 K, 21000 kPa, x2 = 0.7995
  mass density: 659.91 ± 0.46 kg/m3
333.02 K, 22000 kPa, x2 = 0.1654
  mass density: 686.62 ± 0.44 kg/m3
333.02 K, 22000 kPa, x2 = 0.7995
  mass density: 660.83 ± 0.47 kg/m3
333.02 K, 23000 kPa, x2 = 0.1654
  mass density: 687.45 ± 0.45 kg/m3
333.02 K, 23000 kPa, x2 = 0.7995
  mass density: 661.72 ± 0.48 kg/m3
333.02 K, 24000 kPa, x2 = 0.1654
  mass density: 688.25 ± 0.46 kg/m3
333.02 K, 24000 kPa, x2 = 0.7995
  mass density: 662.6 ± 0.49 kg/m3
333.02 K, 25000 kPa, x2 = 0.1654
  mass density: 689.01 ± 0.47 kg/m3
333.02 K, 25000 kPa, x2 = 0.7995
  mass density: 663.44 ± 0.51 kg/m3
333.04 K, 1000 kPa, x2 = 0.2199
  mass density: 663.81 ± 0.26 kg/m3
333.04 K, 2000 kPa, x2 = 0.2199
  mass density: 664.87 ± 0.27 kg/m3
333.04 K, 3000 kPa, x2 = 0.2199
  mass density: 665.96 ± 0.28 kg/m3
333.04 K, 4000 kPa, x2 = 0.2199
  mass density: 667.04 ± 0.29 kg/m3
333.04 K, 5000 kPa, x2 = 0.2199
  mass density: 668.13 ± 0.29 kg/m3
333.04 K, 6000 kPa, x2 = 0.2199
  mass density: 669.19 ± 0.3 kg/m3
333.04 K, 7000 kPa, x2 = 0.2199
  mass density: 670.26 ± 0.31 kg/m3
333.04 K, 8000 kPa, x2 = 0.2199
  mass density: 671.36 ± 0.32 kg/m3
333.04 K, 9000 kPa, x2 = 0.2199
  mass density: 672.39 ± 0.33 kg/m3
333.04 K, 10000 kPa, x2 = 0.2199
  mass density: 673.44 ± 0.34 kg/m3
333.04 K, 11000 kPa, x2 = 0.2199
  mass density: 674.49 ± 0.35 kg/m3
333.04 K, 12000 kPa, x2 = 0.2199
  mass density: 675.5 ± 0.35 kg/m3
333.04 K, 13000 kPa, x2 = 0.2199
  mass density: 676.53 ± 0.36 kg/m3
333.04 K, 14000 kPa, x2 = 0.2199
  mass density: 677.53 ± 0.37 kg/m3
333.04 K, 15000 kPa, x2 = 0.2199
  mass density: 678.51 ± 0.38 kg/m3
333.04 K, 16000 kPa, x2 = 0.2199
  mass density: 679.46 ± 0.39 kg/m3
333.04 K, 17000 kPa, x2 = 0.2199
  mass density: 680.4 ± 0.4 kg/m3
333.04 K, 18000 kPa, x2 = 0.2199
  mass density: 681.32 ± 0.41 kg/m3
333.04 K, 19000 kPa, x2 = 0.2199
  mass density: 682.23 ± 0.42 kg/m3
333.04 K, 20000 kPa, x2 = 0.2199
  mass density: 683.09 ± 0.43 kg/m3
333.04 K, 21000 kPa, x2 = 0.2199
  mass density: 683.96 ± 0.43 kg/m3
333.04 K, 22000 kPa, x2 = 0.2199
  mass density: 684.8 ± 0.44 kg/m3
333.04 K, 23000 kPa, x2 = 0.2199
  mass density: 685.61 ± 0.45 kg/m3
333.04 K, 24000 kPa, x2 = 0.2199
  mass density: 686.43 ± 0.46 kg/m3
333.04 K, 25000 kPa, x2 = 0.2199
  mass density: 687.22 ± 0.47 kg/m3
